Patent publication US11701433B2, “Complexes for delivery of antigenic peptides” (The Regents of the University of Michigan, priority 2017, dated 2023)

Columns and labels:
MOC2-E6/E7 tumors = assay: Real time PCR of Ifna4 and Ifnb1 in tumor homogenates; type: in vivo, C57BL/6 mice; settings: R9F/Q15L study, tumors harvested 25 days post-implantation
Experimental: Experimental animals and treatments: Female C57BL6 mice, aged 6-8 weeks, were purchased from the Jackson Laboratory, and maintained in a pathogen-free facility at the University of Michigan. All animal work were done in accordance with and approved by the Institutional Animal Care & Use Committee (IACUC) at the University of Michigan, Ann Arbor. Syngeneic squamous cell carcinoma cells were implanted subcutaneously at the neck. Tumors were measured every other day using a caliper, and the tumor volume was calculated as 0.52×length×width^2. […] To test the efficacy of the vaccine formulations, MOC2-E6/E7 cells were implanted subcutaneously on the back of the neck on day 0. […] Anti-PD-L1 (100 μg/100 μl) (clone B7H1, BioXCell, West Lebanon, N.H.) was administered through intraperitoneal injection on day 1 and 4 after each vaccination.

STING = assay: Immunoblot of STING protein level in SOX2-expressing cells treated with inhibitors of autophagy; type: cell-based; settings: HEK-293T and UMSCC22b cells
Experimental: Cell culture: UMSCC22b and UMSCC47 were obtained from the U-M Head and Neck Cancer SPORE. PCI-13 was obtained from the University of Pittsburgh Head and Neck Cancer SPORE. HEK-293T was purchased from ATCC. The human HNSCC cells and HEK293T cells were maintained in complete DMEM medium. The MOC2-E6/E7 cells were obtained from Dr. David Mooney at Harvard University, the parental and derivative cell lines were cultured in 30% F12 nutrient mix (Thermo Fisher Scientific, Waltham, Mass.), 5% FBS, puromycin […], insulin (4 mg/ml), hydrocortisone (200 ug/ml), EGF (100 ug/ml) and penicillin (100 U/ml) and streptomycin […]. THP1-blue ISG cells (Cat. thp-isg, InvivoGen, San Diego, Calif.) were cultured in RPMI media supplemented with 10% FBS, 1% penicillin, streptomycin, Normocin and Zeocin. NK cells, T cells, and tumor-infiltrating lymphocytes were cultured in complete RPMI 1640 medium. Peripheral blood monocytes were separated from healthy volunteers using Ficoll-Paque gradient. Primary human NK and CD8^+ T cells were separated using a NK cell enrichment kit and a CD8^+ T cell enrichment kit, respectively (Cat. 19055 and Cat. 19053, […] Technologies Inc, Cambridge, Mass.). All cells were cultured in 37° C. incubator with 5% CO2. […] Tumors were measured every other day using a caliper, and the tumor volume was calculated as 0.52×length×width^2. […]

| Compound | production of Ifna4 and Ifnb1 in tumors (MOC2-E6/E7 tumors) | SOX2-induced decrease in STING protein level (STING) |
| --- | --- | --- |
| cyclic GMP-AMP [cGAMP] | modest effect | – |
| CCN(CC)CCCC(C)Nc1ccnc2cc(Cl)ccc12 (stereo not drawn) [chloroquine] | – | partially restored |
| CO/C1=C\C(C)=C\[C@@H](C)[C@@H](O)[C@@H](C)C/C(C)=C/C=C/[C@H](OC)[C@@H]([C@@H](C)[C@@H](O)[C@H](C)[C@@]2(O)C[C@@H](O)[C@H](C)[C@@H](C(C)C)O2)OC1=O [bafilomycin A] | – | partially restored |
